Reference: patent US20250154169A1, “COMPOUNDS AND METHODS FOR MODULATING SPLICING” (REMIX THERAPEUTICS INC., priority 2021, published 2025)

What was measured:
[1] = tested on: Target C; experiment: Protein abundance, HiBit-assay system (Promega), Target C; format: cell-based, human; conditions: Table 6; HiBiT-modified K562 cells, 24 hours
Method: Compounds described herein were used to screen for effects on quantitative protein abundance using a HiBit assay system (Promega). Quantitative protein abundance was determined by measuring the protein levels of HiBit-tagged protein targets expressed in cell culture via luminescence using the Nano-Glo HiBiT Lytic Detection System, which uses a split complementation assay format to reconstitute NanoBiT enzyme to generate a luminescent signal. A protein abundance assay was developed such that endogenous protein targets could be modified with the HiBiT peptide tag and their abundance could be assessed after compound treatment. Briefly, K562 cell lines containing a HiBiT-modification were treated with various compounds described herein (e.g., compounds of Formulas (I) or (II)). After treatment for 24 hours, the protein abundance of a specific target was determined by measuring luminescence.
Cells were maintained in EIDM with 10% FBS. Before the assay, cells were diluted with […] growth media (EIDM+1% FBS media) and were seeded in a 384-well plate at a density of 10000 cells/well (for each cell line listed in Table 5). Each compound was prepared as a 10-point 3-fold serial dilution in DMSO with the top dose at a final concentration of 10 μM in the well. Unmodified K562 cells were added at the previously specified density with DMSO to serve as an assay baseline and positive control (PC) and DMSO only with the respective modified cell lines was added to the negative control (NC) columns. Final DMSO concentration was kept at or below 0.25%. Treated cell plates were placed in an incubator at 37° C. with 5% CO2 for 24 hours. After 24 hours, 25 μL of Complete HiBit Lytic reagent was added to each well at room temperature (e.g. one plate requiring 10 mL Lytic Buffer, 100 μL LgBiT Protein, 200 μL Lytic Substrate), shaken for 5 minutes at 600 RPM, then left to sit for 10 minutes for signal to stabilize before reading on a Spark Cyto plate reader (Tecan) with a 500 ms measurement time.
To determine compound effects on protein abundance of each target in Table 6, the percent response for each respective cell line was calculated at each compound concentration as follows:
For the normalized response at each concentration, a four-parameter logistical regression was fit to the data and the response was interpolated at the 50% value to determine a concentration for protein abundance at […] the untreated control.

[2] = tested on: MYB mRNA; experiment: Splicing RT-qPCR assay, MYB canonical (CJ) and alternative (AJ) junction mRNA; format: cell-based, human; conditions: Homo sapiens, 24 h, A673 or K562 cells, 24 hours compound treatment, RT-qPCR; for AC50: read-out: MYB AJ (AC50, increase in alternative junction mRNA); for IC50: read-out: MYB CJ (IC50, decrease in canonical junction mRNA)
Summary of the method: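 Canonical (CJ) and alternative-exon (AJ) junction mRNAs quantified by one-step RT-qPCR in cell lysates, normalized to housekeeping PPIA for A673 and GAPDH or GUSB for K562. Cells were exposed 24 h at 37 °C to 11-point 3-fold compound series from 10 uM final, with DMSO at or below 0.25%.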

SMILES | IC50 [1] | IC50 [2] | AC50 [2]
Cc1cn2cc(NC(=O)c3ccc(N4CC[C@@H](NCc5cnc(Cl)nc5)C4)c4cn(C)nc34)cc(F)c2n1 [Compound 573, 4-[(3R)-3-{[(2-chloropyrimidin-5-yl)methyl]amino}pyrrolidin-1-yl]-N-{8-fluoro-2-methylimidazo[1,2-a]pyridin-6-yl}-2-methylindazole-7-carboxamide] | > 10000 nM | 100 to 1000 nM | 100 to 1000 nM
Cc1cn2cc(NC(=O)c3ccc(N4CCC(C)(NC(C)C)C4)c4cn(C)nc34)cc(F)c2n1 (stereo not drawn) [Compound 574] | > 10000 nM | 100 to 1000 nM | 100 to 1000 nM
CCn1cc2c(N3CCNCC3)ccc(C(=O)Nc3cc(F)c4ncccc4c3)c2n1 [Compound 575] | > 10000 nM | > 10000 nM | > 10000 nM

The next lines start with results.

IC50 [1] | IC50 [2] | SMILES | AC50 [2]
1000 to 10000 nM | 1000 to 10000 nM | Cc1cn2cc(NC(=O)c3ccc(N4CC[C@@H](NC56CC(C5)C6)C4)c4cn(C)nc34)cc(F)c2n1 [Compound 568, 4-[(3R)-3-{bicyclo[1.1.1]pentan-1-ylamino}pyrrolidin-1-yl]-N-{8-fluoro-2-methylimidazo[1,2-a]pyridin-6-yl}-2-methylindazole-7-carboxamide] | 1000 to 10000 nM
1000 to 10000 nM | < 100 nM | CCn1cc2c(N3CCC(NC4CC4)C3)cc(F)c(C(=O)Nc3cc(F)c4nc(C)cn4c3)c2n1 (stereo not drawn) [Compound 569, 4-[3-(cyclopropylamino)pyrrolidin-1-yl]-2-ethyl-6-fluoro-N-{8-fluoro-2-methylimidazo[1,2-a]pyridin-6-yl}indazole-7-carboxamide] | < 100 nM
1000 to 10000 nM | < 100 nM | Cc1cn2cc(NC(=O)c3c(F)cc(N4CC[C@@H](NC5CC5)C4)c4cn(C)nc34)cc(F)c2n1 [Compound 571, 4-[(3R)-3-(cyclopropylamino)pyrrolidin-1-yl]-6-fluoro-N-{8-fluoro-2-methylimidazo[1,2-a]pyridin-6-yl}-2-methylindazole-7-carboxamide] | < 100 nM
